Source: ChEMBL document CHEMBL1132897, “The basal SAR of a novel insulin receptor activator” (Bioorg Med Chem Lett, 2000)

Molecular target: Insulin receptor (Homo sapiens) (UniProt P06213)
Test: Percent activation of insulin receptor in CHO cells by 10 uM of compound
Assay type: cell-based

Chain of Insulin receptor (Homo sapiens) (P06213 28-758 limits assumed): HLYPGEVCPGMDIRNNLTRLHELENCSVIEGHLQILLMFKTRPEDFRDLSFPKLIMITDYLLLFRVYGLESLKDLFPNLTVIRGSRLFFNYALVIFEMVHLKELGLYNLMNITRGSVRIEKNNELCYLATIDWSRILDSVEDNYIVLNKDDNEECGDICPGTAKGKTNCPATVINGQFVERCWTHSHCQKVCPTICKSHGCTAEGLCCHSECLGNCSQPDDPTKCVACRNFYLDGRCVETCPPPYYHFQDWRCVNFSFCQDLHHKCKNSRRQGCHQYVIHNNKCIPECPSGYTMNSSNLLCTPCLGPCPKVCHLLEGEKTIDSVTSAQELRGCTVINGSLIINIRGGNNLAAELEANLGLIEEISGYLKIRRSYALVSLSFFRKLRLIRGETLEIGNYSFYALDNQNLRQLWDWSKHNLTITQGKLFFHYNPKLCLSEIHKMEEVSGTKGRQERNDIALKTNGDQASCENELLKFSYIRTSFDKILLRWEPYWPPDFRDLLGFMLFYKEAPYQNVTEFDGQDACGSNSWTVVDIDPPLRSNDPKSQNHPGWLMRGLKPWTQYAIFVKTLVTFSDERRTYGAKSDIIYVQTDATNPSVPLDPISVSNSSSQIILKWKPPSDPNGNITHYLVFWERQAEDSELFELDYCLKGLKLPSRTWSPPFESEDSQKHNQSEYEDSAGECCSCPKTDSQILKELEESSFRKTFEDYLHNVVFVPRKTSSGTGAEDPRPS
Chain of Insulin receptor (Homo sapiens) (P06213 763-1382 limits assumed): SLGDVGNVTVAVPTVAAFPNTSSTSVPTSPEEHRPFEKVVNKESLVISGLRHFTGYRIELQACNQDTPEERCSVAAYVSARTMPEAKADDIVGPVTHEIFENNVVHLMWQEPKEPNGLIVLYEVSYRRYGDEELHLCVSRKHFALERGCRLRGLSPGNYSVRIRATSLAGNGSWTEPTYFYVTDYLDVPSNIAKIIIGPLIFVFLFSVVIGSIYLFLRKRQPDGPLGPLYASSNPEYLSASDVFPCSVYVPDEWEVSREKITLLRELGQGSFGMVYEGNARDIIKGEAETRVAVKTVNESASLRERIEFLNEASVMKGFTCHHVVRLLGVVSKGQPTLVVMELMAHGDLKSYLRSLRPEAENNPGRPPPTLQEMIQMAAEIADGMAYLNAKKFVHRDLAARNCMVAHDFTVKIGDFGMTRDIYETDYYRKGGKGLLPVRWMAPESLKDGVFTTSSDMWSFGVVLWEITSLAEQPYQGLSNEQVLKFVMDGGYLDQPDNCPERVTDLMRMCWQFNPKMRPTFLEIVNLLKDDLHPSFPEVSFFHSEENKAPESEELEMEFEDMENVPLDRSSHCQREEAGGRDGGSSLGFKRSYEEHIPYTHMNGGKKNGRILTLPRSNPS

Structure (SMILES) | Activation [%]
C=CC(C)(C)c1[nH]c2ccccc2c1C1=C(O)C(O)=C(c2c[nH]c3c(CCC(C)(C)O)cccc23)C(=O)C1=O | 35
C=CC(C)(C)c1[nH]c2ccccc2c1C1=C(OS(=O)(=O)C(F)(F)F)C(=O)C(c2c[nH]c3c(CC=C(C)C)cccc23)=C(N)C1=O | 0
C=CC(C)(C)c1[nH]c2ccccc2c1C1=C(OS(=O)(=O)C(F)(F)F)C(=O)C(c2c[nH]c3c(CC=C(C)C)cccc23)=C(OS(=O)(=O)C(F)(F)F)C1=O | 0
C=CC(C)(C)c1[nH]c2ccccc2c1C1=C(O)C(N)=C(c2c[nH]c3c(CC=C(C)C)cccc23)C(=O)C1=O | 2
C=CC(C)(C)c1[nH]c2ccccc2c1C1=C(OC)C(=O)C(c2c[nH]c3c(CC=C(C)C)cccc23)=C(O)C1=O | 16
CCC(C)(C)c1[nH]c2ccccc2c1C1=C(O)C(O)=C(c2c[nH]c3c(CC=C(C)C)cccc23)C(=O)C1=O | 82
C=CC(C)(C)c1[nH]c2ccccc2c1C1=C(OC)C(=O)C(c2c[nH]c3c(CC=C(C)C)cccc23)=C(OC)C1=O | 0
C=CC(C)(C)c1[nH]c2ccccc2c1C1=C(O)C(O)=C(c2c[nH]c3c(CC=C(C)C)cccc23)C(=O)C1=O | 75
CCC(C)(C)c1[nH]c2ccccc2c1C1=C(O)C(O)=C(c2c[nH]c3c(CCC(C)C)cccc23)C(=O)C1=O | 57
C=CC(C)(C)c1[nH]c2ccccc2c1C1=C(O)C(O)=C(c2cn(C)c3c(CC=C(C)C)cccc23)C(=O)C1=O | 24
C=CC(C)(C)c1[nH]c2ccccc2c1C1=C(O)C(O)=C(c2c[nH]c3c(CCC(C)(C)OC(=O)C(F)(F)F)cccc23)C(=O)C1=O | 48
C=CC(C)(C)c1c(C2=C(O)C(O)=C(c3cn(C)c4c(CC=C(C)C)cccc34)C(=O)C2=O)c2ccccc2n1C | 3
C=CC(C)(C)c1c(C2=C(O)C(O)=C(c3c[nH]c4c(CCC(C)(C)O)cccc34)C(=O)C2=O)c2ccccc2n1C | 79
C=CC(C)(C)c1[nH]c2ccccc2c1C1=C(O)C(O)=C(c2c[nH]c3c(CC(O)C(C)(C)O)cccc23)C(=O)C1=O (stereo not given) | 75
C=CC(C)(C)c1[nH]c2ccccc2c1C1=C(O)C(=N\C)/C(c2c[nH]c3c(CC=C(C)C)cccc23)=C(O)C/1=N/C | 1

Molecular target: Insulin receptor (Homo sapiens) (UniProt P06213)
Test: Ability to activate the insulin receptor compared to that of lead structure 1 expressed as X/1

Structure (SMILES) | Relative activity
C=CC(C)(C)c1[nH]c2ccccc2c1C1=C(O)C(O)=C(c2c[nH]c3c(CCC(C)(C)O)cccc23)C(=O)C1=O | 0.47
C=CC(C)(C)c1[nH]c2ccccc2c1C1=C(OS(=O)(=O)C(F)(F)F)C(=O)C(c2c[nH]c3c(CC=C(C)C)cccc23)=C(N)C1=O | 0
C=CC(C)(C)c1[nH]c2ccccc2c1C1=C(OS(=O)(=O)C(F)(F)F)C(=O)C(c2c[nH]c3c(CC=C(C)C)cccc23)=C(OS(=O)(=O)C(F)(F)F)C1=O | 0
C=CC(C)(C)c1[nH]c2ccccc2c1C1=C(O)C(N)=C(c2c[nH]c3c(CC=C(C)C)cccc23)C(=O)C1=O | 0.03
C=CC(C)(C)c1[nH]c2ccccc2c1C1=C(OC)C(=O)C(c2c[nH]c3c(CC=C(C)C)cccc23)=C(O)C1=O | 0.21
CCC(C)(C)c1[nH]c2ccccc2c1C1=C(O)C(O)=C(c2c[nH]c3c(CC=C(C)C)cccc23)C(=O)C1=O | 1.09
C=CC(C)(C)c1[nH]c2ccccc2c1C1=C(OC)C(=O)C(c2c[nH]c3c(CC=C(C)C)cccc23)=C(OC)C1=O | 0
C=CC(C)(C)c1[nH]c2ccccc2c1C1=C(O)C(O)=C(c2c[nH]c3c(CC=C(C)C)cccc23)C(=O)C1=O | 1
CCC(C)(C)c1[nH]c2ccccc2c1C1=C(O)C(O)=C(c2c[nH]c3c(CCC(C)C)cccc23)C(=O)C1=O | 0.76
C=CC(C)(C)c1[nH]c2ccccc2c1C1=C(O)C(O)=C(c2cn(C)c3c(CC=C(C)C)cccc23)C(=O)C1=O | 0.32
C=CC(C)(C)c1[nH]c2ccccc2c1C1=C(O)C(O)=C(c2c[nH]c3c(CCC(C)(C)OC(=O)C(F)(F)F)cccc23)C(=O)C1=O | 0.64
C=CC(C)(C)c1c(C2=C(O)C(O)=C(c3cn(C)c4c(CC=C(C)C)cccc34)C(=O)C2=O)c2ccccc2n1C | 0.03
C=CC(C)(C)c1c(C2=C(O)C(O)=C(c3c[nH]c4c(CCC(C)(C)O)cccc34)C(=O)C2=O)c2ccccc2n1C | 1.05
C=CC(C)(C)c1[nH]c2ccccc2c1C1=C(O)C(O)=C(c2c[nH]c3c(CC(O)C(C)(C)O)cccc23)C(=O)C1=O (stereo not given) | 1
C=CC(C)(C)c1[nH]c2ccccc2c1C1=C(O)C(=N\C)/C(c2c[nH]c3c(CC=C(C)C)cccc23)=C(O)C/1=N/C | 0.01
